Measurements taken from patent US10202361B2, “Pyridazinones as herbicides” (E I DU PONT DE NEMOURS AND COMPANY, priority 2014, dated 2019).
Read-outs that look alike come from different tables or passages of the source.

How the values were obtained:
Type in all cases: in vivo
[1] = test system: barnyardgrass (Echinochloa crus-galli); assay: Test C pre-/postemergence greenhouse herbicide test; settings: Barnyardgrass
Procedure, shortened: (§1)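 Greenhouse pre- and postemergence screen: compounds in a non-phytotoxic solvent mix plus surfactant were applied to soil/sand-sown seeds or to 1- to 4-leaf plants. Visual rating 13–15 d later, 0 (no effect) to 100 (complete control).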

[2] = test system: blackgrass (Alopecurus myosuroides); assay: as above; settings: Alopecurus myosuroides, Blackgrass, read-out: Plant response rating; for pest or weed control at 31 g/ha: 31 g ai/ha; for pest or weed control at 62 g/ha: 62 g ai/ha; for pest or weed control at 125 g/ha: 125 g ai/ha; for pest or weed control at 250 g/ha: 250 g ai/ha
Procedure, shortened: as §1

[3] = test system: crabgrass, Large (large crabgrass, Digitaria sanguinalis); assay: as above; settings: Digitaria sanguinalis, Crabgrass, Large, read-out: Plant response rating; for pest or weed control at 31 g/ha: 31 g ai/ha; for pest or weed control at 62 g/ha: 62 g ai/ha; for pest or weed control at 125 g/ha: 125 g ai/ha; for pest or weed control at 250 g/ha: 250 g ai/ha
Procedure, shortened: as §1

[4] = test system: johnsongrass (Sorghum halepense); assay: as above; settings: Sorghum halepense, Johnsongrass, read-out: Plant response rating; for pest or weed control at 31 g/ha: 31 g ai/ha; for pest or weed control at 62 g/ha: 62 g ai/ha; for pest or weed control at 125 g/ha: 125 g ai/ha; for pest or weed control at 250 g/ha: 250 g ai/ha
Procedure, shortened: as §1

[5] = test system: wheat (winter wheat, Triticum aestivum); assay: as above; settings: Triticum aestivum, Wheat, read-out: Plant response rating; for plant injury at 62 g/ha: 62 g ai/ha; for plant injury at 125 g/ha: 125 g ai/ha; for plant injury at 250 g/ha: 250 g ai/ha
Procedure, shortened: as §1

[6] = test system: soybean (Glycine max); assay: as above; settings: Glycine max, Soybean, read-out: Plant response rating; for plant injury at 62 g/ha: 62 g ai/ha; for plant injury at 125 g/ha: 125 g ai/ha; for plant injury at 250 g/ha: 250 g ai/ha
Procedure, shortened: as §1

[7] = test system: corn (Zea mays); assay: as above; settings: Zea mays, Corn, read-out: Plant response rating; for plant injury at 31 g/ha: 31 g ai/ha; for plant injury at 62 g/ha: 62 g ai/ha; for plant injury at 125 g/ha: 125 g ai/ha; for plant injury at 250 g/ha: 250 g ai/ha
Procedure, shortened: as §1

[8] = test system: pigweed (Amaranthus retroflexus); assay: Test A pre-/postemergence greenhouse herbicide test; settings: Amaranthus retroflexus, 240 h, 0 to 100 scale (0 no effect, 100 complete control), approx. 10 d, read-out: Plant response rating, Pigweed; for pest or weed control at 125 g/ha: 125 g ai/ha; for pest or weed control at 500 g/ha: 500 g ai/ha
Procedure, shortened: (§2)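 Seeds sown in loam–sand blend received a directed preemergence soil spray; postemergence spray was applied at the same time to plants 2–10 cm tall at one- to two-leaf stage. Compounds were in non-phytotoxic solvent with surfactant. Visual injury versus untreated controls after ~10 d in greenhouse, 0–100 scale (100 = complete control).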

[9] = test system: crabgrass, Large (large crabgrass, Digitaria sanguinalis); assay: as above; settings: Digitaria sanguinalis, 240 h, 0 to 100 scale (0 no effect, 100 complete control), approx. 10 d, read-out: Plant response rating, Crabgrass, Large; for pest or weed control at 125 g/ha: 125 g ai/ha; for pest or weed control at 500 g/ha: 500 g ai/ha
Procedure, shortened: as §2

[10] = test system: wheat (Triticum aestivum); assay: as above; settings: Triticum aestivum, 240 h, 0 to 100 scale (0 no effect, 100 complete control), approx. 10 d, read-out: Plant response rating, Wheat; for plant injury at 125 g/ha: 125 g ai/ha; for plant injury at 500 g/ha: 500 g ai/ha
Procedure, shortened: as §2

[11] = post-emergence, Postemergence, 31 g ai/ha

How did the Plant response rating ([1]; Postemergence, 31 g ai/ha) turn out when `Cc1cc(=O)n(-c2ccc(F)cc2)nc1Cc1ccnc(C(F)(F)F)c1` [Compound 1, 2-(4-fluorophenyl)-5-methyl-6-[[2-(trifluoromethyl)-4-pyridinyl]methyl]-3(2H)-pyridazinone] was run?
Its Plant response rating is 10.

And the Plant response rating ([1]; Postemergence, 62 g ai/ha)?
Its Plant response rating is 10.

What about the Plant response rating ([1]; Postemergence, 125 g ai/ha) of the same molecule?
The Plant response rating was 10.

What about the Plant response rating ([1]; Postemergence, 250 g ai/ha) of the same molecule?
Its Plant response rating is 10.

And the Plant response rating ([1]; Preemergence, 31 g ai/ha)?
Its Plant response rating is 35.

And the Plant response rating ([1]; Preemergence, 62 g ai/ha)?
The Plant response rating was 85.

And the Plant response rating ([1]; Preemergence, 125 g ai/ha)?
The Plant response rating was 100.

What about the Plant response rating ([1]; Preemergence, 250 g ai/ha) of the same molecule?
The Plant response rating was 100.

And the pest or weed control at 31 g/ha ([2]; post-emergence, Postemergence)?
The pest or weed control at 31 g/ha was 5%.

And the pest or weed control at 62 g/ha ([2]; post-emergence, Postemergence)?
The pest or weed control at 62 g/ha was 5%.

And the pest or weed control at 125 g/ha ([2]; post-emergence, Postemergence)?
Its pest or weed control at 125 g/ha is 5%.

And the pest or weed control at 250 g/ha ([2]; post-emergence, Postemergence)?
The pest or weed control at 250 g/ha was 5%.

And the pest or weed control at 31 g/ha ([2]; pre-emergence, Preemergence)?
Its pest or weed control at 31 g/ha is 30%.

And the pest or weed control at 62 g/ha ([2]; pre-emergence, Preemergence)?
Its pest or weed control at 62 g/ha is 30%.

And the pest or weed control at 125 g/ha ([2]; pre-emergence, Preemergence)?
Its pest or weed control at 125 g/ha is 90%.

What about the pest or weed control at 250 g/ha ([2]; pre-emergence, Preemergence) of the same molecule?
The pest or weed control at 250 g/ha was 90%.

What about the pest or weed control at 31 g/ha ([3]; post-emergence, Postemergence) of the same molecule?
The pest or weed control at 31 g/ha was 5%.

What about the pest or weed control at 62 g/ha ([3]; post-emergence, Postemergence) of the same molecule?
The pest or weed control at 62 g/ha was 5%.

And the pest or weed control at 125 g/ha ([3]; post-emergence, Postemergence)?
Its pest or weed control at 125 g/ha is 10%.

What about the pest or weed control at 250 g/ha ([3]; post-emergence, Postemergence) of the same molecule?
The pest or weed control at 250 g/ha was 20%.

And the pest or weed control at 31 g/ha ([3]; pre-emergence, Preemergence)?
Its pest or weed control at 31 g/ha is 100%.

And the pest or weed control at 62 g/ha ([3]; pre-emergence, Preemergence)?
The pest or weed control at 62 g/ha was 100%.

And the pest or weed control at 125 g/ha ([3]; pre-emergence, Preemergence)?
The pest or weed control at 125 g/ha was 100%.

And the pest or weed control at 250 g/ha ([3]; pre-emergence, Preemergence)?
Its pest or weed control at 250 g/ha is 100%.

And the pest or weed control at 31 g/ha ([4]; post-emergence, Postemergence)?
The pest or weed control at 31 g/ha was 5%.

And the pest or weed control at 62 g/ha ([4]; post-emergence, Postemergence)?
The pest or weed control at 62 g/ha was 5%.

And the pest or weed control at 125 g/ha ([4]; post-emergence, Postemergence)?
The pest or weed control at 125 g/ha was 5%.

What about the pest or weed control at 250 g/ha ([4]; post-emergence, Postemergence) of the same molecule?
Its pest or weed control at 250 g/ha is 5%.

And the pest or weed control at 31 g/ha ([4]; pre-emergence, Preemergence)?
The pest or weed control at 31 g/ha was 35%.

What about the pest or weed control at 62 g/ha ([4]; pre-emergence, Preemergence) of the same molecule?
Its pest or weed control at 62 g/ha is 60%.

What about the pest or weed control at 125 g/ha ([4]; pre-emergence, Preemergence) of the same molecule?
The pest or weed control at 125 g/ha was 85%.

And the pest or weed control at 250 g/ha ([4]; pre-emergence, Preemergence)?
The pest or weed control at 250 g/ha was 100%.

What about the plant injury at 31 g/ha [5, 11] of the same molecule?
Its plant injury at 31 g/ha is 0%.

What about the plant injury at 62 g/ha ([5]; post-emergence, Postemergence) of the same molecule?
Its plant injury at 62 g/ha is 5%.

What about the plant injury at 125 g/ha ([5]; post-emergence, Postemergence) of the same molecule?
Its plant injury at 125 g/ha is 5%.

And the plant injury at 250 g/ha ([5]; post-emergence, Postemergence)?
The plant injury at 250 g/ha was 5%.

And the plant injury at 62 g/ha ([5]; pre-emergence, Preemergence)?
Its plant injury at 62 g/ha is 5%.

What about the plant injury at 125 g/ha ([5]; pre-emergence, Preemergence) of the same molecule?
Its plant injury at 125 g/ha is 15%.

And the plant injury at 250 g/ha ([5]; pre-emergence, Preemergence)?
Its plant injury at 250 g/ha is 70%.

What about the plant injury at 31 g/ha [6, 11] of the same molecule?
Its plant injury at 31 g/ha is 35%.

And the plant injury at 62 g/ha ([6]; post-emergence, Postemergence)?
Its plant injury at 62 g/ha is 40%.

And the plant injury at 125 g/ha ([6]; post-emergence, Postemergence)?
Its plant injury at 125 g/ha is 50%.

What about the plant injury at 250 g/ha ([6]; post-emergence, Postemergence) of the same molecule?
The plant injury at 250 g/ha was 70%.

And the plant injury at 62 g/ha ([6]; pre-emergence, Preemergence)?
The plant injury at 62 g/ha was 60%.

And the plant injury at 125 g/ha ([6]; pre-emergence, Preemergence)?
Its plant injury at 125 g/ha is 95%.

What about the plant injury at 250 g/ha ([6]; pre-emergence, Preemergence) of the same molecule?
The plant injury at 250 g/ha was 98%.

And the plant injury at 31 g/ha ([7]; post-emergence, Postemergence)?
The plant injury at 31 g/ha was 5%.

And the plant injury at 62 g/ha ([7]; post-emergence, Postemergence)?
Its plant injury at 62 g/ha is 5%.

What about the plant injury at 125 g/ha ([7]; post-emergence, Postemergence) of the same molecule?
Its plant injury at 125 g/ha is 5%.

And the plant injury at 250 g/ha ([7]; post-emergence, Postemergence)?
Its plant injury at 250 g/ha is 10%.

What about the plant injury at 31 g/ha ([7]; pre-emergence, Preemergence) of the same molecule?
The plant injury at 31 g/ha was 15%.

What about the plant injury at 62 g/ha ([7]; pre-emergence, Preemergence) of the same molecule?
The plant injury at 62 g/ha was 50%.

What about the plant injury at 125 g/ha ([7]; pre-emergence, Preemergence) of the same molecule?
The plant injury at 125 g/ha was 90%.

And the plant injury at 250 g/ha ([7]; pre-emergence, Preemergence)?
The plant injury at 250 g/ha was 95%.

And the pest or weed control at 125 g/ha ([8]; post-emergence, Postemergence)?
Its pest or weed control at 125 g/ha is 100%.

What about the pest or weed control at 500 g/ha ([8]; post-emergence, Postemergence) of the same molecule?
The pest or weed control at 500 g/ha was 100%.

What about the pest or weed control at 125 g/ha ([8]; pre-emergence, Preemergence) of the same molecule?
Its pest or weed control at 125 g/ha is 100%.

What about the pest or weed control at 500 g/ha ([8]; pre-emergence, Preemergence) of the same molecule?
The pest or weed control at 500 g/ha was 100%.

And the pest or weed control at 125 g/ha ([9]; post-emergence, Postemergence)?
Its pest or weed control at 125 g/ha is 90%.

What about the pest or weed control at 500 g/ha ([9]; post-emergence, Postemergence) of the same molecule?
The pest or weed control at 500 g/ha was 100%.

What about the pest or weed control at 125 g/ha ([9]; pre-emergence, Preemergence) of the same molecule?
The pest or weed control at 125 g/ha was 100%.

What about the pest or weed control at 500 g/ha ([9]; pre-emergence, Preemergence) of the same molecule?
Its pest or weed control at 500 g/ha is 100%.

What about the plant injury at 125 g/ha ([10]; post-emergence, Postemergence) of the same molecule?
The plant injury at 125 g/ha was 60%.

And the plant injury at 500 g/ha ([10]; post-emergence, Postemergence)?
Its plant injury at 500 g/ha is 90%.

What about the plant injury at 125 g/ha ([10]; pre-emergence, Preemergence) of the same molecule?
The plant injury at 125 g/ha was 0%.

And the plant injury at 500 g/ha ([10]; pre-emergence, Preemergence)?
The plant injury at 500 g/ha was 90%.
